Data on 35 compounds can be found in patent US7897780B2, “Method for controlling phytopathogenic fungi using silylated carboxamides” (Bayer CropScience AG, priority 2004, dated 2011).

The first data set has as its system Botrytis cinerea. In words: Botrytis test (bean)/protective. Type of data set: in vivo. The following applies: protective spray, application rate 500 g/ha, evaluation 2 days after inoculation. The protocol: (§1) To produce a suitable preparation of active compound, 1 part by weight of active compound is mixed with the stated amounts of solvents and emulsifier, and the concentrate is diluted with water to the desired concentration.
To test for protective activity, young plants are sprayed with the preparation of active compound at the stated application rate. After the spray coating has dried on, 2 small pieces of agar colonized by Botrytis cinerea are placed onto each leaf. The inoculated plants are placed in a dark chamber at about 20° C. and 100% atmospheric humidity.
The size of the infected areas of the leaves is evaluated 2 days after the inoculation. 0% means an efficacy which corresponds to that of the control, whereas an efficacy of 100% means that no infection is observed.
Compound `Cc1nc(C(F)F)c(C(=O)Nc2ccsc2CC[Si](C)(C)C)s1` [drawing 90] came in with an Efficacy in % of 100%.
Still for that read-out and setting: with `Cn1cc(C(=O)Nc2ccsc2CC[Si](C)(C)C)c(C(F)(F)F)n1` [drawing 91] the figure was 100%.
The same measure, in the same setting: next, `Cn1cc(C(=O)Nc2ccsc2CC[Si](C)(C)C)c(C(F)F)n1` [drawing 92]: 100%; `Cc1nn(C)c(F)c1C(=O)Nc1ccsc1CC[Si](C)(C)C` [drawing 93]: 100%; `Cn1cc(C(=O)Nc2ccsc2CC[Si](C)(C)C)c(C(F)(F)F)c1` [drawing 94]: 100%.
On to `Cn1cc(C(=O)Nc2ccsc2CC[Si](C)(C)C)c(I)n1` [drawing 95], for which the Efficacy in % worked out at 100%.

A further data set relates to Sphaerotheca fuliginea. In words: Sphaerotheca test (cucumber)/protective. Type of data set: in vivo. Particulars: protective spray, application rate 100 g/ha, evaluation 7 days after inoculation. The protocol:
as §1
To test for protective activity, young plants are sprayed with the preparation of active compound at the stated application rate. After the spray coating has dried on, the plants are inoculated with an aqueous spore suspension of Sphaerotheca fuliginea. The plants are then placed in a greenhouse at about 23° C. and a relative atmospheric humidity of about 70%.
Evaluation was carried out 7 days after the inoculation. 0% means an efficacy which corresponds to that of the control, whereas an efficacy of 100% means that no infection is observed.
`Cc1nc(C(F)F)c(C(=O)Nc2ccsc2CC[Si](C)(C)C)s1` [drawing 78] displayed an Efficacy in % of 100%.
On the same count and under the same terms, with `Cn1cc(C(=O)Nc2ccsc2CC[Si](C)(C)C)c(C(F)(F)F)n1` [drawing 79] the figure was 100%.
On the same count and under the same terms, with `Cn1cc(C(=O)Nc2ccsc2CC[Si](C)(C)C)c(C(F)F)n1` [drawing 80] the figure was 100%; with `Cc1nn(C)c(F)c1C(=O)Nc1ccsc1CC[Si](C)(C)C` [drawing 81], 100%; with `Cn1cc(C(=O)Nc2ccsc2CC[Si](C)(C)C)c(C(F)(F)F)c1` [drawing 82], 100%.
On the same count and under the same terms, with `Cn1cc(C(=O)Nc2ccsc2CC[Si](C)(C)C)c(I)n1` [drawing 83] the figure was 98%.

For a further data set, the system named is Venturia inaequalis. In words: Venturia test (apple)/protective. Type of data set: in vivo. The following applies: protective spray, application rate 100 g/ha, evaluation 10 days after inoculation. The protocol:
as §1
To test for protective activity, young plants are sprayed with the preparation of active compound at the stated application rate. After the spray coating has dried on, the plants are inoculated with an aqueous conidia suspension of the apple scab pathogen Venturia inaequalis and then remain in an incubation cabin at about 20° C. and 100% relative atmospheric humidity for 1 day.
The plants are then placed in a greenhouse at about 21° C. and a relative atmospheric humidity of about 90%.
(§2) Evaluation is carried out 10 days after the inoculation. 0% means an efficacy which corresponds to that of the control, whereas an efficacy of 100% means that no infection is observed.
`Cc1nc(C(F)F)c(C(=O)Nc2ccsc2CC[Si](C)(C)C)s1` [drawing 84]: the Efficacy in % turned out to be 100%.
In turn, `Cn1cc(C(=O)Nc2ccsc2CC[Si](C)(C)C)c(C(F)(F)F)n1` [drawing 85] came in with an Efficacy in % of 100%.
Still for that read-out and setting: with `Cn1cc(C(=O)Nc2ccsc2CC[Si](C)(C)C)c(C(F)F)n1` [drawing 86] the figure was 100%; with `Cc1nn(C)c(F)c1C(=O)Nc1ccsc1CC[Si](C)(C)C` [drawing 87], 100%.
The same measure, in the same setting: next, `Cn1cc(C(=O)Nc2ccsc2CC[Si](C)(C)C)c(C(F)(F)F)c1` [drawing 88]: 99%.
`Cn1cc(C(=O)Nc2ccsc2CC[Si](C)(C)C)c(I)n1` [drawing 89]: the Efficacy in % is given as 100%.

Test system in the next data set: not listed separately
In words: log P determination by HPLC on reversed-phase column (EEC Directive 79/831 Annex V.A8). The following applies: reversed-phase C18 HPLC column, pH 2.3, C18, 43° C., 0.1% aqueous phosphoric acid/acetonitrile gradient. The data set is classed as physicochemical. The protocol: The given log P values were determined in accordance with EEC Directive 79/831 Annex V.A8 by HPLC (High Performance Liquid Chromatography) on a reversed-phase column (C 18). Temperature: 43° C. Mobile phases for the determination in the acidic range (pH 2.3): 0.1% aqueous phosphoric acid, acetonitrile; linear gradient from 10% acetonitrile to 90% acetonitrile. Calibration was carried out using unbranched alkan-2-ones (having 3 to 16 carbon atoms) with known logP values (determination of the logP values by the retention times using linear interpolation between two successive alkanones). The lambda max values were determined in the maxima of the chromatographic signals using the UV spectra from 200 nm to 400 nm.
The term chromatographic logP denotes a lipophilicity value derived from retention on a column. A high value points to a more lipophilic compound. In turn, `C[Si](C)(C)CCc1sccc1NC(=O)c1cccnc1Cl` [Example 1, 2-chloro-N-{2-[2-(trimethylsilyl)ethyl]-3-thienyl}nicotinamide] came in with a chromatographic logP of 3.65.
Same read-out and setting: next, `C[Si](C)(C)CCc1sccc1N` [Example (III-1), 2-(2-trimethylsilanylethyl)thiophen-3-ylamine]: 1.78.

The test system of a further data set is Podosphaera leucotricha. Kind of data set: Podosphaera test (apple)/protective. The data set is classed as in vivo. The following applies: protective spray, application rate 100 g/ha, evaluation 10 days after inoculation. The protocol:
as §1
To test for protective activity, young plants are sprayed with the preparation of active compound at the stated application rate. After the spray coating has dried on, the plants are inoculated with an aqueous spore suspension of the apple mildew pathogen Podosphaera leucotricha. The plants are then placed in a greenhouse at about 23° C. and a relative atmospheric humidity of about 70%.
as §2
Compound `Cc1nc(C(F)F)c(C(=O)Nc2ccsc2CC[Si](C)(C)C)s1` [drawing 73] displayed an Efficacy in % of 100%.
Still for that read-out and setting: with `Cn1cc(C(=O)Nc2ccsc2CC[Si](C)(C)C)c(C(F)(F)F)n1` [drawing 74] the figure was 100%.
Same read-out and setting: with `Cn1cc(C(=O)Nc2ccsc2CC[Si](C)(C)C)c(C(F)F)n1` [drawing 75] the figure was 100%; with `Cc1nn(C)c(F)c1C(=O)Nc1ccsc1CC[Si](C)(C)C` [drawing 76], 100%.
Still for that read-out and setting: next, `Cn1cc(C(=O)Nc2ccsc2CC[Si](C)(C)C)c(C(F)(F)F)c1` [drawing 77]: 99%.

The test system of the next data set is Alternaria mali. Kind of data set: In vitro test for the ED50 determination in microorganisms. Type of data set: cell-based. Particulars: 50% inhibition of fungal growth, potato dextrose medium, 20° C., 3-5 days, photometric 620 nm, tested at 0.05, 0.5, 5 and 50 ppm. The protocol:
A methanolic solution of the active compound to be tested, admixed with emulsifier PS16, is pipetted into the wells of a microtitre plate. After the solvent has evaporated, 200 μl of potato dextrose medium are added to each well. Beforehand, a suitable concentration of spores or mycelium of the fungus to be tested was added to the medium. The resulting concentrations of active compound are 0.05, 0.5, 5 and 50 ppm. The resulting concentration of the emulsifier is 300 ppm.
The plates are then incubated on a shaker at a temperature of 20° C. for 3-5 days, until sufficient growth can be observed in the untreated control.
Evaluation is carried out photometrically at a wavelength of 620 nm. The dose of active compound which causes 50% inhibition of fungal growth compared to the untreated control (ED50) is calculated from data measured at different concentrations.
Turning to `C[Si](C)(C)CCc1sccc1NC(=O)c1ccccc1C(F)(F)F`, the ED50 value is recorded as under 0.05 ppm.
The same measure, in the same setting: next, `Cn1cc(C(=O)Nc2ccsc2CC[Si](C)(C)C)c(C(F)(F)F)n1` [drawing 100]: under 0.05 ppm; `Cc1nc(C(F)F)c(C(=O)Nc2ccsc2CC[Si](C)(C)C)s1` [drawing 101]: under 0.05 ppm; `C[Si](C)(C)CCc1sccc1NC(=O)c1cccnc1Cl` [drawing 103]: under 0.05 ppm.
Same read-out and setting: next, `Cn1cc(C(=O)Nc2ccsc2CC[Si](C)(C)C)c(C(F)(F)F)c1` [drawing 104]: under 0.05 ppm; `Cn1cc(C(=O)Nc2ccsc2CC[Si](C)(C)C)c(C(F)F)n1` [drawing 105]: under 0.05 ppm.

A further data set has as its system Puccinia recondita. In words: Puccinia test (wheat)/protective. The following applies: protective spray, application rate 500 g/ha, evaluation 10 days after inoculation. The data set is classed as in vivo. The protocol: To produce a suitable preparation of active compound, 1 part by weight of active compound is mixed with the stated amounts of solvent and emulsifier, and the concentrate is diluted with water to the desired concentration.
To test for protective activity, young plants are sprayed with the preparation of active compound at the stated application rate. After the spray coating has dried on, the plants are sprayed with a conidia suspension of Puccinia recondita. The plants remain in an incubation cabin at 20° C. and 100% relative atmospheric humidity for 48 hours.
The plants are then placed in a greenhouse at a temperature of about 20° C. and a relative atmospheric humidity of 80% to promote the development of rust pustules.
as §2
In turn, `Cc1nc(C(F)F)c(C(=O)Nc2ccsc2CC[Si](C)(C)C)s1` [drawing 96] returned an Efficacy in % of 100%.
Still for that read-out and setting: with `Cn1cc(C(=O)Nc2ccsc2CC[Si](C)(C)C)c(C(F)(F)F)n1` [drawing 97] the figure was 100%.
Still for that read-out and setting: next, `Cn1cc(C(=O)Nc2ccsc2CC[Si](C)(C)C)c(C(F)F)n1` [drawing 98]: 100%; `Cc1nn(C)c(F)c1C(=O)Nc1ccsc1CC[Si](C)(C)C` [drawing 99]: 100%.
